pIC50: −log10 of the molar value. Like-named read-outs stand apart in the source and are kept apart here.
System: Toledo cells
Experiment: Cell proliferation assay, Toledo cells (MTS, 72 h)
Assay type: cell-based
Settings: Toledo cells, MTS, read-out: Toledo IC50
Description: MTS testing kit was purchased from Promega (Madison, Wis., USA). The RPMI-1640, Fetal bovine serum and Penicillin-Streptomycin were purchased from BI (Biological Industries, Beit Haemek, Israel). Dimethyl sulfoxide (DMSO) was purchased from Sigma (St. Louis, Mo., USA). Toledo (ATCC catalog #: CRL-2631) cells were cultured in RPMI-1640 supplemented with Penicillin-Streptomycin and 10% FBS.
To investigate whether a compound is able to inhibit the activity of BCL-2 in cells, a mechanism-based assay using Toledo lines was developed. In this assay, the inhibition of BCL-2 was reflected by the inhibition of cell proliferation of Toledo cells. Cells were plated into 96-well plates at the optimized cell density of 30000 cells/well. Plates were incubated at 37° C., with 5% CO2 for 4h. Compounds were serially diluted and added to the plates with the final concentrations of 10000, 3333.3, 1111.1, 370.4, 123.5, 41.2, 13.7, 4.6 and 1.5 nM. Plates were incubated at 37° C., with 5% CO2 for 72 h. 20 μl MTS was added into each well and the plates were incubated at 37° C., with 5% CO2 for exactly 2 h. The absorbance was measured by a microplate reader at 490 nm. IC50 was calculated using GraphPad Prism 5.0 software.

Structure (SMILES) | pIC50 (Homo sapiens) | pIC50
CC(C)c1ccccc1[C@H]1CCCN1C1CC2(CCN(c3ccc(C(=O)NS(=O)(=O)c4cc5c(c([N+](=O)[O-])c4)NC([C@H]4COCCO4)CO5)c(Oc4cnc5[nH]cc(F)c5c4)c3)CC2)C1 (single isomer, unassigned) [Example D-50a, N-(((R or S)-3-((S)-1,4-dioxan-2-yl)-5-nitro-3,4-dihydro-2H-benzo[b][1,4]oxazin-7-yl)sulfonyl)-2-((3-fluoro-1H-pyrrolo[2,3-b]pyridin-5-yl)oxy)-4-(2-((R or S)-2-(2-isopropylphenyl)pyrrolidin-1-yl)-7-azaspiro[3.5]nonan-7-yl)benzamide] | 9.00 | 
CC(C)c1ccccc1[C@H]1CCCN1C1CC2(CCN(c3ccc(C(=O)NS(=O)(=O)c4cc5c(c([N+](=O)[O-])c4)NC([C@H]4COCCO4)CO5)c(Oc4cnc5[nH]cc(F)c5c4)c3)CC2)C1 (single isomer, unassigned) [Example D-50b, N-(((R or S)-3-((S)-1,4-dioxan-2-yl)-5-nitro-3,4-dihydro-2H-benzo[b][1,4]oxazin-7-yl)sulfonyl)-2-((3-fluoro-1H-pyrrolo[2,3-b]pyridin-5-yl)oxy)-4-(2-((R or S)-2-(2-isopropylphenyl)pyrrolidin-1-yl)-7-azaspiro[3.5]nonan-7-yl)benzamide] |  | 9.00
COCCNc1nc2[nH]ccc2cc1Oc1cc(N2CCC3(CC2)CC(N2CCC[C@H]2c2ccccc2C(C)C)C3)ccc1C(=O)NS(=O)(=O)c1cc2c(c([N+](=O)[O-])c1)N[C@@H]([C@H]1CC[C@](C)(O)CC1)CO2 (single isomer, unassigned) [Example D-56, N-(((S)-3-((1r,4S)-4-hydroxy-4-methylcyclohexyl)-5-nitro-3,4-dihydro-2H-benzo[b][1,4]oxazin-7-yl)sulfonyl)-4-(2-((R or S)-2-(2-isopropylphenyl)pyrrolidin-1-yl)-7-azaspiro[3.5]nonan-7-yl)-2-((6-((2-methoxyethyl)amino)-1H-pyrrolo[2,3-b]pyridin-5-yl)oxy)benzamide] | 9.00 | 
CC(C)c1ccccc1[C@@H]1CCCN1C1CC2(CCN(c3ccc(C(=O)NS(=O)(=O)c4cc5c(c([N+](=O)[O-])c4)N[C@@H]([C@H]4CC[C@](C)(O)CC4)CO5)c(Oc4cc5cc[nH]c5nc4N4CCOCC4)c3)CC2)C1 (single isomer, unassigned) [Example D-57, N-(((S)-3-((1r,4S)-4-hydroxy-4-methylcyclohexyl)-5-nitro-3,4-dihydro-2H-benzo[b][1,4]oxazin-7-yl)sulfonyl)-4-(2-((R or S)-2-(2-isopropylphenyl)pyrrolidin-1-yl)-7-azaspiro[3.5]nonan-7-yl)-2-((6-morpholino-1H-pyrrolo [2,3-b]pyridin-5-yl)oxy)benzamide] | 9.00 | 
CC(C)c1ccccc1[C@@H]1CCCN1C1CC2(CCN(c3ccc(C(=O)NS(=O)(=O)c4cc5c(c([N+](=O)[O-])c4)N[C@@H]([C@H]4CC[C@](C)(O)CC4)CO5)c(Oc4cc5cc[nH]c5nc4OCC(F)(F)F)c3)CC2)C1 (single isomer, unassigned) [Example D-58, N-(((S)-3-((1r,4S)-4-hydroxy-4-methylcyclohexyl)-5-nitro-3,4-dihydro-2H-benzo[b][1,4]oxazin-7-yl)sulfonyl)-4-(2-((R or S)-2-(2-isopropylphenyl)pyrrolidin-1-yl)-7-azaspiro[3.5]nonan-7-yl)-2-((6-(2,2,2-trifluoroethoxy)-1H-pyrrolo[2,3-b]pyridin-5-yl)oxy) benzamide] | 9.00 | 
CC(C)Oc1nc2[nH]ccc2cc1Oc1cc(N2CCC3(CC2)CC(N2CCC[C@H]2c2ccccc2C(C)C)C3)ccc1C(=O)NS(=O)(=O)c1cc2c(c([N+](=O)[O-])c1)N[C@@H]([C@H]1CC[C@](C)(O)CC1)CO2 (single isomer, unassigned) [Example D-66, N-(((S)-3-((1r,4S)-4-hydroxy-4-methylcyclohexyl)-5-nitro-3,4-dihydro-2H-benzo[b][1,4]oxazin-7-yl)sulfonyl)-2-((6-isopropoxy-1H-pyrrolo[2,3-b]pyridin-5-yl)oxy)-4-(2-((R or S)-2-(2-isopropylphenyl)pyrrolidin-1-yl)-7-azaspiro[3.5]nonan-7-yl)benzamide] | 9.00 | 
CC(C)c1ccccc1[C@@H]1CCCN1C1CC2(CCN(c3ccc(C(=O)NS(=O)(=O)c4cc5c(c([N+](=O)[O-])c4)N[C@@H]([C@H]4CC[C@](C)(O)CC4)CO5)c(Oc4cc5cc[nH]c5nc4OC4CC4)c3)CC2)C1 (single isomer, unassigned) [Example D-67, 2-((6-cyclopropoxy-1H-pyrrolo[2,3-b]pyridin-5-yl)oxy)-N-(((S)-3-((1r,4S)-4-hydroxy-4-methylcyclohexyl)-5-nitro-3,4-dihydro-2H-benzo [b][1,4]oxazin-7-yl)sulfonyl)-4-(2-((R or S)-2-(2-isopropylphenyl)pyrrolidin-1-yl)-7-azaspiro[3.5]nonan-7-yl)benzamide] | 9.00 | 
CC(C)c1ccccc1[C@@H]1CCCN1C1CC2(CCN(c3ccc(C(=O)NS(=O)(=O)c4cc5c(c([N+](=O)[O-])c4)N[C@@H]([C@H]4CC[C@](C)(O)CC4)CO5)c(Oc4cc5cc[nH]c5nc4OCCO)c3)CC2)C1 (single isomer, unassigned) [Example D-68, N-(((S)-3-((1r,4S)-4-hydroxy-4-methylcyclohexyl)-5-nitro-3,4-dihydro-2H-benzo[b][1,4]oxazin-7-yl)sulfonyl)-2-((6-(2-hydroxyethoxy)-1H-pyrrolo[2,3-b]pyridin-5-yl)oxy)-4-(2-((R or S)-2-(2-isopropylphenyl)pyrrolidin-1-yl)-7-azaspiro[3.5]nonan-7-yl)benzamide] | 9.00 | 
CC(C)c1ccccc1[C@@H]1CCCN1C1CC2(CCN(c3ccc(C(=O)NS(=O)(=O)c4cc5c(c([N+](=O)[O-])c4)N[C@@H]([C@H]4CC[C@](C)(O)CC4)CO5)c(Oc4cc5cc[nH]c5nc4OC[C@@H](C)O)c3)CC2)C1 (single isomer, unassigned) [Example D-69, N-(((S)-3-((1r,4S)-4-hydroxy-4-methylcyclohexyl)-5-nitro-3,4-dihydro-2H-benzo[b][1,4]oxazin-7-yl)sulfonyl)-2-((6-((7)-2-hydroxypropoxy)-1H-pyrrolo[2,3-b]pyridin-5-yl)oxy)-4-(2-((R or S)-2-(2-isopropylphenyl)pyrrolidin-1-yl)-7-azaspiro[3.5]nonan-7-yl)benzamide] | 9.00 | 
CC(C)c1ccccc1[C@@H]1CCCN1C1CC2(CCN(c3ccc(C(=O)NS(=O)(=O)c4cc5c(c([N+](=O)[O-])c4)N[C@@H]([C@H]4CC[C@](C)(O)CC4)CO5)c(Oc4cc5cc[nH]c5nc4OC[C@H](C)O)c3)CC2)C1 (single isomer, unassigned) [Example D-70, N-(((S)-3-((1r,4S)-4-hydroxy-4-methylcyclohexyl)-5-nitro-3,4-dihydro-2H-benzo[b][1,4]oxazin-7-yl)sulfonyl)-2-((6-((S)-2-hydroxypropoxy)-1H-pyrrolo[2,3-b]pyridin-5-yl)oxy)-4-(2-((R or S)-2-(2-isopropylphenyl)pyrrolidin-1-yl)-7-azaspiro[3.5]nonan-7-yl)benzamide] | 9.00 | 

— patent US20230159527A1, “COMPOUNDS AS BCL-2 INHIBITORS” (Fochon Pharmaceuticals, Ltd., priority 2020, published 2023)
